Data taken from the CheMixHub viscosity set.

Experiment: xn = mol fraction of the nth substance listed

c1ccccc1 + CCO
Details | viscosity [mPa·s]
293.15 K, 101 kPa, x1 = 0.16 | 1.017
293.15 K, 101 kPa, x1 = 0.37 | 0.81
293.15 K, 101 kPa, x1 = 0.64 | 0.657
298.15 K, 101 kPa, x1 = 0.1259 | 0.916
298.15 K, 101 kPa, x1 = 0.16 | 0.926
298.15 K, 101 kPa, x1 = 0.2547 | 0.805
298.15 K, 101 kPa, x1 = 0.37 | 0.759
298.15 K, 101 kPa, x1 = 0.4079 | 0.708
298.15 K, 101 kPa, x1 = 0.554 | 0.643
298.15 K, 101 kPa, x1 = 0.64 | 0.624
298.15 K, 101 kPa, x1 = 0.676 | 0.611
298.15 K, 101 kPa, x1 = 0.779 | 0.583
298.15 K, 101 kPa, x1 = 0.842 | 0.584
298.15 K, 101 kPa, x1 = 0.91 | 0.587
298.15 K, 101.33 kPa, x1 = 0.0518 | 1.013
298.15 K, 101.33 kPa, x1 = 0.1059 | 0.959
298.15 K, 101.33 kPa, x1 = 0.1078 | 0.955
298.15 K, 101.33 kPa, x1 = 0.1897 | 0.88
298.15 K, 101.33 kPa, x1 = 0.1934 | 0.884
298.15 K, 101.33 kPa, x1 = 0.2966 | 0.794
298.15 K, 101.33 kPa, x1 = 0.3308 | 0.776
298.15 K, 101.33 kPa, x1 = 0.3795 | 0.728
298.15 K, 101.33 kPa, x1 = 0.3983 | 0.731
298.15 K, 101.33 kPa, x1 = 0.4887 | 0.681
298.15 K, 101.33 kPa, x1 = 0.5514 | 0.651
298.15 K, 101.33 kPa, x1 = 0.5729 | 0.647
298.15 K, 101.33 kPa, x1 = 0.5993 | 0.638
298.15 K, 101.33 kPa, x1 = 0.6579 | 0.607
298.15 K, 101.33 kPa, x1 = 0.6973 | 0.61
298.15 K, 101.33 kPa, x1 = 0.7073 | 0.588
298.15 K, 101.33 kPa, x1 = 0.7987 | 0.59
298.15 K, 101.33 kPa, x1 = 0.8126 | 0.567
298.15 K, 101.33 kPa, x1 = 0.8995 | 0.582
298.15 K, 101.33 kPa, x2 = 0.0192 | 0.567
298.15 K, 101.33 kPa, x2 = 0.113 | 0.645
298.15 K, 101.33 kPa, x2 = 0.2 | 0.597
298.15 K, 101.33 kPa, x2 = 0.306 | 0.642
298.15 K, 101.33 kPa, x2 = 0.5 | 0.712
298.15 K, 101.33 kPa, x2 = 0.692 | 0.816
298.15 K, 101.33 kPa, x2 = 0.892 | 0.977
298.16 K, 101 kPa, x2 = 0.1 | 0.583
298.16 K, 101 kPa, x2 = 0.2 | 0.587
298.16 K, 101 kPa, x2 = 0.3 | 0.605
298.16 K, 101 kPa, x2 = 0.4 | 0.635
298.16 K, 101 kPa, x2 = 0.5 | 0.675
298.16 K, 101 kPa, x2 = 0.6 | 0.723
298.16 K, 101 kPa, x2 = 0.7 | 0.782
298.16 K, 101 kPa, x2 = 0.8 | 0.861
298.16 K, 101 kPa, x2 = 0.9 | 0.959
303 K, 100 kPa, x2 = 0.4 | 0.596
303.15 K, 101 kPa, x1 = 0.1259 | 0.841
